Reference: patent US10941435B2, “Methods and compositions for detecting or measuring caspases or apoptosis” (priority 2016, dated 2021)

Assays:
HeLa cells [1] = experiment: Fluorescence microscopy and HCS staurosporine dose-response; assay type: cell-based; details: 5 hours; for recognition of apoptotic cells, imaging: 5 μM Compound 1 or 9 or 4 μM CELLEVENT Green 3/7, 10 μM to 0 μM staurosporine, FIG. 9A-9C; for dose-response curve of dye fluorescence to staurosporine: 5 μM dye, 10 μM to 0 μM staurosporine, CX5 HCS, FIG. 9D
Procedure: The dye/staurosporine stock solution was diluted 1:10 onto HeLa cells in complete media for a final concentration starting at 5 μM Compound 1 or Compound 9, or 4 μM CELLEVENT Green 3/7 and 10 μM staurosporine and ending at 0 μM staurosporine. After a 5 hour incubation at 37° C., live cells were imaged using white light, DAPI and FITC filters. The cells were then fixed and stained with HCS […]™ Deep Red stain (Thermo Fisher Scientific, Waltham, Mass.) and quantified on a […]™ CX5 High Content Screening (HCS) Platform (Thermo Fisher Scientific, Waltham, Mass.).

HeLa cells [2] = experiment: Fluorescence microscopy detection of caspase activity and apoptosis, nuclear intensity and Z'; assay type: cell-based; details: 1 μM versus 1 nM staurosporine, 18 hour incubation, HCSStudio
Procedure: HeLa cells at a density of 7500 cells/well were incubated overnight in growth media (MEM+10% FBS. L-glutamine and Pen-Strep). Half of the plate was treated with 1 μM Staurosporine (FIG. 8B), while the other half was treated with 1 nM Staurosporine (FIG. 8A). After an 18 hour incubation (37° C., 5% CO2), all cells were incubated with SYT®82 (FIGS. 8A and 8B, left panels) and Compound 1 (FIGS. 8A and 8B, center panels). The average intensity of Compound 1 in the cellular nuclear region was calculated using HCSStudio (Compartmental Analysis Bioapplication), and a Z′ was determined (Z′=0.63).

Jurkat cells [3] = experiment: Flow cytometry of Jurkat cells treated with 1 μM staurosporine for 1 hour, then Compound 1; assay type: cell-based; details: for positive population, density plots: not shown
Procedure: In another experiment, Jurkat cells treated with 1 μM Staurosporine for 1 hour (FIG. 5A) or untreated control cells (FIG. 5B) were then treated with Compound 1. Cells were then analyzed on an ATTUNE® NXT flow cytometer. The cells were oriented on a SSC/FSC plot to include both low and high side scatter cells, but to exclude debris and gated to exclude doublets (not shown).

Jurkat cells [4] = experiment: Flow cytometric detection of caspase activity and apoptosis, staurosporine dilution series; assay type: cell-based
Procedure: Jurkat cells in log phase were resuspended in complete medium (RPMI-1640, supplemented with 10% Fetal Bovine Serum, 2 mM L-glutamine & 55 U/mL) and adjusted to a concentration of 2×10^6 cells per milliliter. 100 μl of cells were aliquoted in each well of a 96-well, V-bottom microplate so that 8 dilutions in triplicate were tested for each substrate.
Drug dilutions for treating cells were created by adding 1000 μL of complete medium containing 2 μM Staurosporine, 1:2 dilutions of this were added to 500 μL of complete medium, so that a series of 8 dilutions of Staurosporine were created.
100 μL of the media/Staurosporine mixtures were added to each well so that 3 wells of cells contained the highest dose, and then repeated for the next set of 3 wells.
Cells were incubated at 37° C., 5% CO2 in a standard cell culture incubator for 4 hours.
After the 4 hour incubation, each well had 1 μL of caspase substrate added so that the final concentration of the substrate was 2 μM of substrate in 200 μL of media. […]
At the end of the incubation, cells were analyzed using an ATTUNE® NXT Acoustic Focusing Cytometer (Thermo Fisher Scientific, Waltham. Mass.) using the 488 nm excitation and 530/30 nm emission filters to detect CELLEVENT™ Green, or the 405 nm excitation laser and the 440/50 nm emission filters to detect Compound 1. […]

BPAEC cells = experiment: Dye toxicity experiment, 48 hour incubation, imaging; details: 5 μM dye 48 hours, then 1 μM staurosporine overnight
Procedure: In another experiment to look at dye toxicity. BPAEC cells were incubated overnight in growth media (DMEM+10% FBS). […] After the 48 hour incubation, DMSO (control) or 1 μM staurosporine (final concentration) was added to a subset of the dye-treated cells and incubated overnight at 37° C.

Jurkat cells [5] = experiment: Flow cytometry of Jurkat cells +/- 0.5 μM staurosporine, with SYTOX Dead Cell Stain; assay type: cell-based; details: Jurkat cells +/- 0.5 μM staurosporine 3.5 hours, 1 μM dye 30 min, FIG. 7A/7B
Procedure: In yet another experiment, Jurkat cells were resuspended at 1×10^6 cells/ml in RPMI medium+10% FBS and aliquoted into 0.2 ml samples. The cells were treated with 0.5 μM Staurosporine (+STR) or without (−STR) for 3.5 hours at 37° C. […] 1 μl SYTOX™ Dead Cell Stain (Thermo Fisher Scientific, Waltham. Mass.) was added to the cells and incubated for at least 15 min. Cells were analyzed on an ATTUNE™ NXT flow cytometer as described above and were analyzed without washing.

SMILES | recognition of apoptotic cells, imaging (HeLa cells [1]) | dose-response curve of dye fluorescence to staurosporine (HeLa cells [1]) | Z' from average intensity of Compound 1 in the cellular nuclear region (HeLa cells [2]) | Compound 1 positive cells, histograms (Jurkat cells [3]; Jurkat cells treated with 1 μM staurosporine for 1 hour, FIG. 5A) [%] | positive population, density plots (Jurkat cells [3]; Jurkat cells treated with 1 μM staurosporine for 1 hour) [%] | Compound 1 positive cells, histograms (Jurkat cells [3]; untreated control Jurkat cells (no staurosporine) stained with Compound 1, FIG. 5B) [%] | positive population, density plots (Jurkat cells [3]; untreated control Jurkat cells (no staurosporine) stained with Compound 1) [%] | positive cells (percent positive of intact single cells) (Jurkat cells [4]; 1 μM staurosporine 4 hours, 2 μM substrate 30 minutes, FIG. 4A/4B) [%] | detection of apoptosis over the entire staurosporine concentration range, CELLEVENT Green 3/7 versus Compound 1 (Jurkat cells [4]; 8 staurosporine dilutions in triplicate, 2 μM substrate, FIG. 3) | detection of staurosporine-induced apoptotic cells after long incubation with dye (BPAEC cells) | distinction of non-apoptotic from apoptotic cell populations (Jurkat cells [5])
CC(=O)N[C@@H](CC(=O)O)C(=O)N[C@@H](CCC(=O)O)C(=O)N[C@H](C(=O)N[C@@H](CC(=O)O)C(=O)NCCN(C)c1ccc(-c2nc3ccc(-c4nc5ccc(N6CCN(C)CC6)cc5[nH]4)cc3[nH]2)cc1)C(C)C [Compound 1] | recognize apoptotic cells | good induction of apoptosis | 0.63 | 3.49 | 3.55 | 1.30 | 1.32 | 84.9 | essentially no difference | able to detect the staurosporine-induced apoptotic cells | –
CC(=O)N[C@@H](CC(=O)O)C(=O)N[C@@H](CCC(=O)O)C(=O)N[C@H](C(=O)N[C@@H](CC(=O)O)C(=O)NCCCCCN(C)c1ccc(-c2nc3ccc(-c4nc5ccc(N6CCN(C)CC6)cc5[nH]4)cc3[nH]2)cc1)C(C)C [Compound 9] | recognize apoptotic cells | good induction of apoptosis | – | – | – | – | – | – | – | able to detect the staurosporine-induced apoptotic cells | distinguished non-apoptotic from apoptotic cell populations
